Results reported in patent US20060223811A1, “Triglycerine depressant composition” (priority 2000, published 2006).

Test system: blood triglyceride levels
Test: Assay of blood triglyceride levels in dogs after 11 days of oral capsule administration (GK-GPO-POD method)
Conditions: serum, relative ratio against averaged pre-dosing level (100), oral capsule once daily, mean of 5 dogs
[1] = Table 9, pravastatin 2 mg/kg, pantethine 300 mg/kg
[2] = Table 11, pravastatin 2, riboflavin butyrate 6, d-α-tocopherol acetate 150, ascorbic acid 500 mg/kg
[3] = Table 12, pravastatin 2, d-α-tocopherol acetate 10, ascorbic acid 50 mg/kg

Source text: Beagle dogs aged 5 months were purchased from Covance Research Products Inc. and used after 1 month of quarantine and acclimatisation breeding.
(3) Preparation Forms for Administration, Methods of Preparing the Formulation, and Method of Stocking the Formulation
The calculated amounts of pravastatin or each component of the compositions based on the body weight of each dog were weighed and filled in a gelatin capsule (½ ounce) purchased from TORPAC Inc. Capsules filled with pravastatin were stocked in a refrigerator and, those filled with combination drugs stocked at room temperature until use.
The combination drugs were filled in identical gelatin capsules.
(4) Route of Administration and Administration Period
Pravastatin or combination drug capsules were forcibly orally administered to each of the test animals once daily between 9:00 and 12:30. Animals were fasted for 2 or 3 hr prior to administration of the capsules.
The administration period was 11 successive days.
(5) Preparation of Test Samples and Procedures
Blood (10 mL) was collected from the superficial radial vein 14 and 7 days prior to capsule administration (2 and 1 weeks prior to administration) and 4, 8, and 12 days after administration of the capsule. Animals were fasted for approximately 18 hr prior to blood collection. Collected blood was placed in a test tube, left at room temperature for 0.5-1 hr, before being centrifuged (3,000 rpm for 10 min). The obtained serum was used for assays of blood triglyceride levels according to GK-GPO-POD methods.
A full automatic analyzer (Monarch, Instrumentation Laboratory, Inc.) was used for assay of triglycerides.
The averaged value in each group was obtained from 5 animals per group.

`CC[C@H](C)C(=O)O[C@H]1C[C@H](O)C=C2C=C[C@H](C)[C@H](CC[C@@H](O)C[C@@H](O)CC(=O)O)[C@H]21` [Pravastatin alone, (+)−(3R, 5R)-3,5-dihydroxy-7-[(1S, 2S,6S,8S,8aR)-6-hydroxy-2-methyl-8-[(S)-2-methylbutyryloxy]-1,2,6,7,8,8a-hexahydro-1-naphthyl]heptanoic acid] was tested, and the “Blood Triglyceride Levels after administration, 4 days” value (shortened to “Blood Triglyceride Levels … 4 days”) [1] was 108.9, the “Blood Triglyceride Levels after administration, 8 days” value (“Blood Triglyceride Levels … 8 days” below) [1] was 104.0 and the “Blood Triglyceride Levels after administration, 12 days” value (from here on “Blood Triglyceride Levels … 12 days”) [1] was 91.1. The “Blood Triglyceride Levels … 4 days” value [2] was 108.9, the “Blood Triglyceride Levels … 8 days” value [2] was 104.0 and the “Blood Triglyceride Levels … 12 days” value [2] was 91.1. The “Blood Triglyceride Levels … 4 days” value [3] was 108.9, the “Blood Triglyceride Levels … 8 days” value [3] was 104.0 and the “Blood Triglyceride Levels … 12 days” value [3] was 91.1.
